This is an account of results in the supplement of paper PMC11208160.

The data set in a line: recombinant UMI read abundance after kanamycin selection (control-corrected) (log10(CPM+1)); higher = more efficient recombination; extreme values may be limits of the assay; sequences stand for … in AGTGCAGAGAAAATCGGCCAGTTTTCTCTGCCTGCAGTCCGCATGCCGTGGGACCCCTTGGGTTCTAACCTGTTGCCTAGATTTATGCAGCGGACTGCCTTTCTCCCAAAGTGATAAACCGG…AGGTTGGTTTCACT; site = the 11-nt donor. As to the method: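 Pooled E. coli donor-specificity screen for the IS621 bridge recombinase. Each library member carries a reprogrammed 11-nt donor and a full-length LE bridge RNA expressed in cis from the natural promoter, with a paired donor-binding loop (8-nt LDG + 4-nt RDG) and a target-binding loop fixed to T5. It is co-electroporated with a T5 target plasmid; recombinase is induced with 0.07 mM IPTG and recombinants are selected on kanamycin. UMIs are counted as CPM, averaged over two biological replicates and corrected by the unselected control. Molecule = full bridge RNA written as DNA, built from the T5 scaffold: LDG = donor specificity nt 1-8, RDG = reverse complement of nt 8-11.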
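Note: IS621 bridge recombinase in Escherichia coli cells against a fixed T5 target plasmid.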

Take “AAGCTCGCATGGACCGGTTTTCCCGGTAATCCGTATTTGGG (site AAGCACGCTCC)”: the “recombinant UMI read abundance (log10)” value stood at 0.0201.

With “AAGCTCGCATGGACCGGTTTTCCCGGTAATCCGTATTTGGG (site AAGCCCGCTCC)”, the “recombinant UMI read abundance (log10)” value was 0.0313.

As to “AAGCTCGCATGGACCGGTTTTCCCGGTAATCCGTATTTGGG (site AAGCGCGCTCC)”, the “recombinant UMI read abundance (log10)” value amounted to 0.0107.

On to “AAGCTCGCATGGACCGGTTTTCCCGGTAATCCGTATTTGGG (site AAGCTCGCTCC)”, for which the “recombinant UMI read abundance (log10)” value stood at 0.0176.

“AAGGATCCATGGACCGGTTTTCCCGGTAATCCGTATTTGTT (site AAGGATCCTAA)”: the “recombinant UMI read abundance (log10)” value is 1.19.

As for “AAGGGCTCATGGACCGGTTTTCCCGGTAATCCGTATTTGGA (site AAGGGCTCTTC)”, the “recombinant UMI read abundance (log10)” value was found to be 1.96.

Regarding “AAGGTAACATGGACCGGTTTTCCCGGTAATCCGTATTTGCT (site AAAGTAACTAG)”, the “recombinant UMI read abundance (log10)” value came to 2.59.

With “AAGGTAACATGGACCGGTTTTCCCGGTAATCCGTATTTGCT (site AACGTAACTAG)”, the “recombinant UMI read abundance (log10)” value was determined as 0.731.

As for “AAGGTAACATGGACCGGTTTTCCCGGTAATCCGTATTTGCT (site AAGGTAACTAG)”, the “recombinant UMI read abundance (log10)” value stood at 2.73.

Turning to “AAGGTAACATGGACCGGTTTTCCCGGTAATCCGTATTTGCT (site AATGTAACTAG)”, the “recombinant UMI read abundance (log10)” value was found to be 1.43.

“AAGGTTACATGGACCGGTTTTCCCGGTAATCCGTATTTGAA (site AAGGTTACTTT)”: the “recombinant UMI read abundance (log10)” value was 2.53.

Regarding “AAGTAGGCATGGACCGGTTTTCCCGGTAATCCGTATTTGCA (site AAGTAGGCTTG)”, the “recombinant UMI read abundance (log10)” value came to 2.63.

Take “AAGTCGTCATGGACCGGTTTTCCCGGTAATCCGTATTTGCG (site AAGTCGTCTCG)”: the “recombinant UMI read abundance (log10)” value was 1.19.

Regarding “AAGTGAGCATGGACCGGTTTTCCCGGTAATCCGTATTTGGA (site AAGTGAGCTTC)”, the “recombinant UMI read abundance (log10)” value came to 0.812.

In the case of “AATAATGCATGGACCGGTTTTCCCGGTAATCCGTATTTGGA (site AATAATGCTTC)”, the “recombinant UMI read abundance (log10)” value was found to be 1.06.

As to “AATAATGCATGGACCGGTTTTCCCGGTAATCCGTATTTGGA (site AATCATGCTTC)”, the “recombinant UMI read abundance (log10)” value came out at 0.217.

Take “AATAATGCATGGACCGGTTTTCCCGGTAATCCGTATTTGGA (site AATGATGCTTC)”: the “recombinant UMI read abundance (log10)” value amounted to 0.361.

Turning to “AATAATGCATGGACCGGTTTTCCCGGTAATCCGTATTTGGA (site AATTATGCTTC)”, the “recombinant UMI read abundance (log10)” value is 0.707.

“AATACTTCATGGACCGGTTTTCCCGGTAATCCGTATTTGGA (site AATACTTCTTC)”: the “recombinant UMI read abundance (log10)” value amounted to 1.81.

On to “AATAGACCATGGACCGGTTTTCCCGGTAATCCGTATTTGAT (site AATAGACCTAT)”, for which the “recombinant UMI read abundance (log10)” value is 0.

For the sequence “AATAGTACATGGACCGGTTTTCCCGGTAATCCGTATTTGCG (site AATAGTACTCG)”, the “recombinant UMI read abundance (log10)” value stood at 0.989.

In the case of “AATCAACCATGGACCGGTTTTCCCGGTAATCCGTATTTGGT (site AATCAACCTAC)”, the “recombinant UMI read abundance (log10)” value amounted to 0.00613.

Consider “AATCAATCATGGACCGGTTTTCCCGGTAATCCGTATTTGGC (site AATCAATCTGC)”, for which the “recombinant UMI read abundance (log10)” value amounted to 2.07.

For “AATCATTCATGGACCGGTTTTCCCGGTAATCCGTATTTGCT (site AATCATTCTAG)”, the “recombinant UMI read abundance (log10)” value is 2.27.

“AATCCTCCATGGACCGGTTTTCCCGGTAATCCGTATTTGGA (site AATCCTCCTTC)”: the “recombinant UMI read abundance (log10)” value was determined as 0.

“AATCGTCCATGGACCGGTTTTCCCGGTAATCCGTATTTGAT (site AAACGTCCTAT)”: the “recombinant UMI read abundance (log10)” value was 0.00356.

Regarding “AATCGTCCATGGACCGGTTTTCCCGGTAATCCGTATTTGAT (site AACCGTCCTAT)”, the “recombinant UMI read abundance (log10)” value came out at 0.0167.

As for “AATCGTCCATGGACCGGTTTTCCCGGTAATCCGTATTTGAT (site AAGCGTCCTAT)”, the “recombinant UMI read abundance (log10)” value was 0.432.

“AATCGTCCATGGACCGGTTTTCCCGGTAATCCGTATTTGAT (site AATCGTCCTAT)”: the “recombinant UMI read abundance (log10)” value was 0.306.

On to “AATCTACCATGGACCGGTTTTCCCGGTAATCCGTATTTGAG (site AATCTACCTCT)”, for which the “recombinant UMI read abundance (log10)” value was determined as 0.0184.

Turning to “AATCTCGCATGGACCGGTTTTCCCGGTAATCCGTATTTGCG (site AATCTCGCTCG)”, the “recombinant UMI read abundance (log10)” value stood at 0.0146.

In the case of “AATGCCTCATGGACCGGTTTTCCCGGTAATCCGTATTTGAG (site AATGCCTCTCT)”, the “recombinant UMI read abundance (log10)” value came out at 0.693.

As for “AATGTATCATGGACCGGTTTTCCCGGTAATCCGTATTTGCT (site AATGTAACTAG)”, the “recombinant UMI read abundance (log10)” value amounted to 0.796.

In the case of “AATGTATCATGGACCGGTTTTCCCGGTAATCCGTATTTGCT (site AATGTACCTAG)”, the “recombinant UMI read abundance (log10)” value worked out at 0.03.

With “AATGTATCATGGACCGGTTTTCCCGGTAATCCGTATTTGCT (site AATGTAGCTAG)”, the “recombinant UMI read abundance (log10)” value amounted to 0.

Turning to “AATGTATCATGGACCGGTTTTCCCGGTAATCCGTATTTGCT (site AATGTATCTAG)”, the “recombinant UMI read abundance (log10)” value worked out at 2.56.

Turning to “AATTAGGCATGGACCGGTTTTCCCGGTAATCCGTATTTGGA (site AATTAAGCTTC)”, the “recombinant UMI read abundance (log10)” value came to 0.133.

As to “AATTAGGCATGGACCGGTTTTCCCGGTAATCCGTATTTGGA (site AATTACGCTTC)”, the “recombinant UMI read abundance (log10)” value amounted to 0.011.

On to “AATTAGGCATGGACCGGTTTTCCCGGTAATCCGTATTTGGA (site AATTAGGCTTC)”, for which the “recombinant UMI read abundance (log10)” value is 0.746.

As for “AATTAGGCATGGACCGGTTTTCCCGGTAATCCGTATTTGGA (site AATTATGCTTC)”, the “recombinant UMI read abundance (log10)” value is 0.317.

Turning to “AATTATTCATGGACCGGTTTTCCCGGTAATCCGTATTTGGA (site AATTATACTTC)”, the “recombinant UMI read abundance (log10)” value stood at 0.554.

As to “AATTATTCATGGACCGGTTTTCCCGGTAATCCGTATTTGGA (site AATTATCCTTC)”, the “recombinant UMI read abundance (log10)” value was found to be 0.553.

In the case of “AATTATTCATGGACCGGTTTTCCCGGTAATCCGTATTTGGA (site AATTATGCTTC)”, the “recombinant UMI read abundance (log10)” value is 0.0186.

Regarding “AATTATTCATGGACCGGTTTTCCCGGTAATCCGTATTTGGA (site AATTATTCTTC)”, the “recombinant UMI read abundance (log10)” value was 2.28.

Turning to “AATTCGTCATGGACCGGTTTTCCCGGTAATCCGTATTTGAA (site AATTCGTCTTT)”, the “recombinant UMI read abundance (log10)” value was 0.559.

As to “AATTGTGCATGGACCGGTTTTCCCGGTAATCCGTATTTGGA (site AATTATGCTTC)”, the “recombinant UMI read abundance (log10)” value was 0.773.

For “AATTGTGCATGGACCGGTTTTCCCGGTAATCCGTATTTGGA (site AATTCTGCTTC)”, the “recombinant UMI read abundance (log10)” value was 0.00901.

As for “AATTGTGCATGGACCGGTTTTCCCGGTAATCCGTATTTGGA (site AATTGTGCTTC)”, the “recombinant UMI read abundance (log10)” value was determined as 0.895.

Turning to “AATTGTGCATGGACCGGTTTTCCCGGTAATCCGTATTTGGA (site AATTTTGCTTC)”, the “recombinant UMI read abundance (log10)” value came out at 0.0805.

Take “AATTTAGCATGGACCGGTTTTCCCGGTAATCCGTATTTGTC (site AATTTAGCTGA)”: the “recombinant UMI read abundance (log10)” value came to 0.582.

In the case of “AATTTTGCATGGACCGGTTTTCCCGGTAATCCGTATTTGGA (site AATTATGCTTC)”, the “recombinant UMI read abundance (log10)” value was 0.473.

In the case of “AATTTTGCATGGACCGGTTTTCCCGGTAATCCGTATTTGGA (site AATTCTGCTTC)”, the “recombinant UMI read abundance (log10)” value turned out to be 0.118.

Take “AATTTTGCATGGACCGGTTTTCCCGGTAATCCGTATTTGGA (site AATTGTGCTTC)”: the “recombinant UMI read abundance (log10)” value was 0.154.

Regarding “AATTTTGCATGGACCGGTTTTCCCGGTAATCCGTATTTGGA (site AATTTTGCTTC)”, the “recombinant UMI read abundance (log10)” value came to 1.

For the sequence “ACAAAGACATGGACCGGTTTTCCCGGTAATCCGTATTTGCA (site ACAAAGACTTG)”, the “recombinant UMI read abundance (log10)” value stood at 3.1.

Consider “ACAAAGACATGGACCGGTTTTCCCGGTAATCCGTATTTGCA (site AGGAAGACTTG)”, for which the “recombinant UMI read abundance (log10)” value was 2.33.

Regarding “ACAAAGCCATGGACCGGTTTTCCCGGTAATCCGTATTTGGC (site ACAAAGCCTGC)”, the “recombinant UMI read abundance (log10)” value amounted to 0.

“ACAAGAACATGGACCGGTTTTCCCGGTAATCCGTATTTGTC (site ACAAGAACTGA)”: the “recombinant UMI read abundance (log10)” value came to 1.75.

Regarding “ACAAGAACATGGACCGGTTTTCCCGGTAATCCGTATTTGTC (site ACACGAACTGA)”, the “recombinant UMI read abundance (log10)” value stood at 0.00498.

Turning to “ACAAGAACATGGACCGGTTTTCCCGGTAATCCGTATTTGTC (site ACAGGAACTGA)”, the “recombinant UMI read abundance (log10)” value came out at 0.

As for “ACAAGAACATGGACCGGTTTTCCCGGTAATCCGTATTTGTC (site ACATGAACTGA)”, the “recombinant UMI read abundance (log10)” value was 0.

In the case of “ACAAGGACATGGACCGGTTTTCCCGGTAATCCGTATTTGCG (site ACAAGGACTCG)”, the “recombinant UMI read abundance (log10)” value came out at 2.42.

Regarding “ACAAGGGCATGGACCGGTTTTCCCGGTAATCCGTATTTGAC (site ACAAGGGCTGT)”, the “recombinant UMI read abundance (log10)” value was determined as 2.69.

In the case of “ACAAGTGCATGGACCGGTTTTCCCGGTAATCCGTATTTGAC (site ACAAGTGCTGT)”, the “recombinant UMI read abundance (log10)” value is 2.62.

As for “ACAAGTTCATGGACCGGTTTTCCCGGTAATCCGTATTTGTC (site ACAAGTTCTGA)”, the “recombinant UMI read abundance (log10)” value is 0.
